Where two headings read alike, the source gives them in different places.
Target: T1, Fervidobacterium sp. Ven 5, DSM 6204 pullulanase, purified native enzyme (Fervidobacterium pennivorans, UniProt Q9XDB5)
T1 construct: Ven 5; single SDS-PAGE band of 78 kDa; not the E. coli clone PL2125
T1 sequence (Q9XDB5 29-849): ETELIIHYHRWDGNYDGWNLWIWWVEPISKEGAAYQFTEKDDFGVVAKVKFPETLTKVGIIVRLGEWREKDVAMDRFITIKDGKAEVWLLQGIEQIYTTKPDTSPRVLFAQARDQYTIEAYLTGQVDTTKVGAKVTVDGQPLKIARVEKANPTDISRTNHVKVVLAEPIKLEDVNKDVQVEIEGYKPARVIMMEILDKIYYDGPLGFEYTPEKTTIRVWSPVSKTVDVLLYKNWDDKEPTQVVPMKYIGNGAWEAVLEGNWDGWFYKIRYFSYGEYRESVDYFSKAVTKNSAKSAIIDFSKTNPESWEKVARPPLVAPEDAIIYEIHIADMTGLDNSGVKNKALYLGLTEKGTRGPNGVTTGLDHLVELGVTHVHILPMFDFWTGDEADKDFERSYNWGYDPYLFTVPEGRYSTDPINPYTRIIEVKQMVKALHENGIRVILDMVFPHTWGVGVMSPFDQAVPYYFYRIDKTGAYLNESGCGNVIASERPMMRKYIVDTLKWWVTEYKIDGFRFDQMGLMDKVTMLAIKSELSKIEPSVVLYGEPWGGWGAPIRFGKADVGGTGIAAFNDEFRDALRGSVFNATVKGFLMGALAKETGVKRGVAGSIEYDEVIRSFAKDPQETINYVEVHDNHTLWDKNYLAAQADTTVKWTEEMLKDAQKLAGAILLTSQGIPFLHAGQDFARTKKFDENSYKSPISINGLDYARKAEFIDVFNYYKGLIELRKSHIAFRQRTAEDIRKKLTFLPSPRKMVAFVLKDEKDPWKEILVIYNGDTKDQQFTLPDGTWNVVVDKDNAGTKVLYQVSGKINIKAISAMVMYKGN
Assay: Influence of cyclodextrins and EDTA on pullulytic activity (reducing sugars liberated from pullulan)
Format: biochemical
Conditions: for Influence on the pullulytic activity (in words): up to 5 mM
Procedure: Pullulanase activity was measured by determining the amount of reducing sugars liberated during incubation with pullulan at 85° C. and pH 6.0. The activity of 1 U of pullulanase was defined as that amount of enzyme which liberates 1 μmol of reducing sugar per minute using maltose as a standard. The enzymatic reactions were conducted in 50 mM sodium-phosphate buffer, pH 6.0, the concentration of the substrate was 0.5% (w/v).
The reaction mixture was prepared by adding 50 μl enzyme solution to 200 μl substrate solution. The mixture was incubated at 85° C. for 5 minutes, cooled and diluted with 2.5 ml water. After incubation 250 μl dinitrosalicylic acid reagent (i.e. dinitrosalicylic acid 1 g, 2 N NaOh 20 ml, K-Na-tartrate×4 H2 O 30 g, and distilled water 100 ml) were added. The optical density was measured at 546 nm against a mixture which was not incubated.
6) Influence of metal ions,
The concentration of inhibitors was:
Metal ions and cyclodextrins
The purified pullulanase obtained according to Ex. 2 was subjected to characterization using the method for analyzing pullulanase activity described in Ex. 1.
To investigate the influence of metal ions, cyclodextrins and various glucose polymers on the activity of the pullulanase the purified enzyme was incubated with a 0.5% pullulan solution (pH 6.0) in the presence of up to 5 mM of metal ions and cyclodextrins. Amylose, starch, glycogen, pullulan and branched oligosaccharides were added in concentrations of up to 0.05%.

[1] = pH 6, read-out: Activity (%) of pullulanase in the presence of inhibitor

With `O=C(O)CN(CCN(CC(=O)O)CC(=O)O)CC(=O)O` [EDTA] the inhibition at 5000 µM [1] was 100% and the “Influence on the pullulytic activity (in words)” value (from here on “Influence”) (0.5% pullulan solution, pH 6.0) was “did not influence the pullulytic activity”.

For `OCC1OC2OC3C(CO)OC(OC4C(CO)OC(OC5C(CO)OC(OC6C(CO)OC(OC7C(CO)OC(OC1C(O)C2O)C(O)C7O)C(O)C6O)C(O)C5O)C(O)C4O)C(O)C3O` (stereo not drawn) [α-Cyclodextrin], the inhibition at 5000 µM [1] was 57% and the “Influence” value (0.5% pullulan solution, pH 6.0) was “decreased the activity of the enzyme slightly”.

For `OCC1OC2OC3C(CO)OC(OC4C(CO)OC(OC5C(CO)OC(OC6C(CO)OC(OC7C(CO)OC(OC8C(CO)OC(OC1C(O)C2O)C(O)C8O)C(O)C7O)C(O)C6O)C(O)C5O)C(O)C4O)C(O)C3O` (stereo not drawn) [β-Cyclodextrin], the inhibition at 5000 µM (5 mM inhibitor, 0.5% pullulan solution, pH 6.0, 1.0 U/ml pullulanase, no inhibitor = 100, read-out: Activity (%) of pullulanase in the presence of inhibitor) was 4% and the “Influence” value (0.5% pullulan solution, pH 6.0) was “inhibited completely”.

— US5486469A, “Thermostable Fervidobacterium pullulanases” (Novo Nordisk A/S, priority 1991, dated 1996)
